What all share (type): functional
A short description of assay [1]: Cytotoxicity against human DU145 cells assessed as cell growth at 10^-6 M after 48 hrs by SRB assay. The following applies: DU-145, 48 h, read-out: Activity.
The test system of the next assay is ACHN. In words: Cytotoxicity against human ACHN cells assessed as cell growth at 10^-5 M after 48 hrs by SRB assay. Particulars: read-out: Activity.
Assay [2] in a line: Cytotoxicity against human SNB75 cells assessed as cell growth at 10^-6 M after 48 hrs by SRB assay. The following applies: SNB-75, 48 h, read-out: Activity.
Assay [3] is described as follows: Cytotoxicity against human Caki1 cells assessed as cell growth at 10^-7 M after 48 hrs by SRB assay. The following applies: CAKI-1, 48 h, read-out: Activity.
Assay [4] concerns A549. Briefly: Cytotoxicity against human A549 cells assessed as cell growth at 10^-5 M after 48 hrs by SRB assay. The following applies: A549, 48 h, read-out: Activity.
A further assay has as its system U-251. Briefly: Cytotoxicity against human U251 cells assessed as cell growth at 10^-8 M after 48 hrs by SRB assay. Particulars: U-251, 48 h, read-out: Activity.
In a further assay the test system is SK-MEL-2. In words: Cytotoxicity against human SK-MEL-2 cells assessed as cell growth at 10^-5 M after 48 hrs by SRB assay. Particulars: SK-MEL-2, 48 h, read-out: Activity.
The nature of assay [5]: Cytotoxicity against human Hs 578T cells assessed as cell growth at 10^-7 M after 48 hrs by SRB assay. Particulars: read-out: Activity.
For the next assay, the system named is NCI-H23. In words: Cytotoxicity against human NCI-H23 cells assessed as cell growth at 10^-6 M after 48 hrs by SRB assay. The following applies: NCI-H23, 48 h, read-out: Activity.
For assay [6], the system named is A549. Briefly: Cytotoxicity against human A549 cells assessed as cell growth at 10^-4 M after 48 hrs by SRB assay. Particulars: A549, 48 h, read-out: Activity.
The subject of assay [7] is SK-MEL-28. Briefly: Cytotoxicity against human SK-MEL-28 cells assessed as cell growth at 10^-7 M after 48 hrs by SRB assay. Particulars: SK-MEL-28, 48 h, read-out: Activity.
Assay [8] concerns MDA-MB-231. Briefly: Cytotoxicity against human MDA-MB-231 cells assessed as cell growth at 10^-4 M after 48 hrs by SRB assay. The following applies: MDA-MB-231, 48 h, read-out: Activity.
A short description of assay [9]: Cytotoxicity against human UACC62 cells assessed as cell growth at 10^-7 M after 48 hrs by SRB assay. Particulars: UACC-62, 48 h, read-out: Activity.
A further assay has as its system SN12C. In words: Cytotoxicity against human SN12C cells assessed as cell growth at 10^-8 M after 48 hrs by SRB assay. Particulars: read-out: Activity.
For a further assay, the system named is NCI-H322M. Briefly: Cytotoxicity against human NCI-H322M cells assessed as cell growth at 10^-8 M after 48 hrs by SRB assay. Particulars: read-out: Activity.
Assay [10] has as its system A549. In words: Cytotoxicity against human A549 cells assessed as cell growth at 10^-8 M after 48 hrs by SRB assay. The following applies: A549, 48 h, read-out: Activity.
The nature of assay [11]: Cytotoxicity against human HOP92 cells assessed as cell growth at 10^-5 M after 48 hrs by SRB assay. Particulars: HOP-92, 48 h, read-out: Activity.
Assay [12] is described as follows: Cytotoxicity against human HL-60(TB) cells assessed as cell growth at 10^-4 M after 48 hrs by SRB assay. Particulars: HL-60, 48 h, read-out: Activity.
The nature of assay [13]: Cytotoxicity against human OVCAR3 cells assessed as cell growth at 10^-4 M after 48 hrs by SRB assay. The following applies: OVCAR-3, 48 h, read-out: Activity.
The subject of assay [14] is MDA-MB-231. In words: Cytotoxicity against human MDA-MB-231 cells assessed as cell growth at 10^-8 M after 48 hrs by SRB assay. Particulars: MDA-MB-231, 48 h, read-out: Activity.
A short description of assay [15]: Cytotoxicity against human COLO205 cells assessed as cell growth at 50 uM after 48 hrs by SRB assay. Particulars: COLO 205, 48 h, read-out: Activity.
For another assay, the system named is Malme-3M. Briefly: Cytotoxicity against human MALME-3M cells assessed as cell growth at 0.5 uM after 48 hrs by SRB assay. Particulars: read-out: Activity.
The nature of assay [16]: Cytotoxicity against human HOP62 cells assessed as cell growth at 50 uM after 48 hrs by SRB assay. The following applies: HOP-62, 48 h, read-out: Activity.
Another assay relates to SK-MEL-5. In words: Cytotoxicity against human SK-MEL-5 cells assessed as cell growth at 5 uM after 48 hrs by SRB assay. The following applies: SK-MEL-5, 48 h, read-out: Activity.
The nature of assay [17]: Cytotoxicity against human MOLT4 cells assessed as cell growth at 5 uM after 48 hrs by SRB assay. The following applies: MOLT-4, 48 h, read-out: Activity.
Assay [18] in a line: Cytotoxicity against human BT549 cells assessed as cell growth at 0.5 uM after 48 hrs by SRB assay. Particulars: BT-549, 48 h, read-out: Activity.
In assay [19] the test system is SK-MEL-28. In words: Cytotoxicity against human SK-MEL-28 cells assessed as cell growth at 50 nM after 48 hrs by SRB assay. Particulars: SK-MEL-28, 48 h, read-out: Activity.
Assay [20] deals with A549. In words: Cytotoxicity against human A549 cells assessed as cell growth at 0.5 uM after 48 hrs by SRB assay. The following applies: A549, 48 h, read-out: Activity.
Assay [21] in a line: Cytotoxicity against human HCT15 cells assessed as cell growth at 5 uM after 48 hrs by SRB assay. Particulars: HCT-15, 48 h, read-out: Activity.
A short description of assay [22]: Cytotoxicity against human OVCAR5 cells assessed as cell growth at 50 uM after 48 hrs by SRB assay. The following applies: OVCAR-5, 48 h, read-out: Activity.
A short description of assay [23]: Cytotoxicity against human PC3 cells assessed as cell growth at 5 nM after 48 hrs by SRB assay. The following applies: PC-3, 48 h, read-out: Activity.
Another assay has as its system EKVX. In words: Cytotoxicity against human EKVX cells assessed as cell growth at 50 nM after 48 hrs by SRB assay. Particulars: read-out: Activity.
Assay [24] in a line: Cytotoxicity against human Hs 578T cells assessed as cell growth at 5 nM after 48 hrs by SRB assay. The following applies: read-out: Activity.
Assay [25] in a line: Cytotoxicity against human SF268 cells assessed as cell growth at 5 uM after 48 hrs by SRB assay. Particulars: SF-268, 48 h, read-out: Activity.
Assay [26] can be described thus: Cytotoxicity against human OVCAR3 cells assessed as cell growth at 50 uM after 48 hrs by SRB assay. The following applies: OVCAR-3, 48 h, read-out: Activity.
Assay [27] in a line: Cytotoxicity against human DU145 cells assessed as cell growth at 50 nM after 48 hrs by SRB assay. The following applies: DU-145, 48 h, read-out: Activity.
The next assay deals with MDA-MB-468. In words: Cytotoxicity against human MDA-MB-468 cells assessed as cell growth at 50 uM after 48 hrs by SRB assay. Particulars: MDA-MB-468, 48 h, read-out: Activity.
Assay [28] can be described thus: Cytotoxicity against human SF539 cells assessed as cell growth at 5 uM after 48 hrs by SRB assay. The following applies: SF-539, 48 h, read-out: Activity.
A short description of assay [29]: Cytotoxicity against human RXF393 cells assessed as cell growth at 5 uM after 48 hrs by SRB assay. The following applies: RXF 393, 48 h, read-out: Activity.
The next assay concerns HT-29. In words: Cytotoxicity against human HT-29 cells assessed as cell growth at 50 uM after 48 hrs by SRB assay. Particulars: HT-29, 48 h, read-out: Activity.
A further assay relates to SR. Briefly: Cytotoxicity against human SR cells assessed as cell growth at 0.5 uM after 48 hrs by SRB assay. The following applies: read-out: Activity.

The values below come from ChEMBL document CHEMBL3774317, “Design and synthesis of novel tamoxifen analogues that avoid CYP2D6 metabolism” (Eur J Med Chem, 2016).

Regarding `C/C(=C(/c1ccc(O)cc1)c1ccc(OCCN2CCCC2)cc1)c1ccccc1`, the growth at 1 µM in assay [1] turned out to be 94%; in assay [2], 76%; with NCI-H23, 86%. For the same molecule, the growth at 10 µM was 25% with ACHN, 4% with A549 [4], -67% with SK-MEL-2 and -13% in assay [11]. In addition, the growth at 0.1 µM was 88% in [3], 101% in assay [5], 97% with SK-MEL-28 [7] and 101% in assay [9]. The growth at 0.01 µM with U-251 is 103%; with SN12C it was 101%; in the assay with NCI-H322M, 97%; in the assay with A549 [10], 99%; in the assay with MDA-MB-231 [14], 110%. Moreover, the growth at 100 µM with A549 [6] was -96%; in the assay on MDA-MB-231 [8], -71%; in assay [12], -69%; in assay [13], -100%.

As to `CCCCCCCCCC(=O)Oc1ccc(/C(=C(/C)c2ccccc2)c2ccc(OCCN3CCCC3)cc2)cc1`, the growth at 50 µM is -89% in assay [15]; -78% in assay [16]; -84% in assay [22]; -84% in assay [26]; -87% in the assay with MDA-MB-468; -89% in the assay with HT-29. The growth at 0.5 µM with Malme-3M stood at 61%; in assay [18], 83%; in the assay on A549 [20] it was 96%; in the assay on SR it was 60%. In addition, the growth at 5 µM with SK-MEL-5 was 90%; in [17], 82%; in assay [21] it was 72%; in [25], 83%; in assay [28], 92%; in [29], 73%. In addition, the growth at 0.05 µM in the assay with SK-MEL-28 [19] amounted to 100%; in the assay on EKVX, 90%; in assay [27], 98%. Also, the growth at 0.005 µM in assay [23] was 100%; in assay [24] it was 92%.
